Columns and labels:
[1] = calculated from published PK profiles; cited from earlier work
healthy volunteers = test: Euglycaemic glucose clamp (glucose infusion rate) after single SC dose in healthy volunteers; type: in vivo, human
Protocol: In all treatment periods, subjects undergo a euglycaemic clamp procedure for up to 24/36 hours following each insulin compound injection. Glucose infusion rates (GIR) are adjusted to maintain euglycaemia, with the documented GIR over time providing the GD measure of insulin action. The aim of the euglycaemic glucose clamp is to maintain euglycaemia through glucose infusion after the administration of a dose of an insulin compound. It is assumed that endogenous insulin secretion and hepatic glucose output are minimal and that any glucose that is translocated out of the glucose space (i.e., glucose metabolized) is the direct consequence of the administered exogenous insulin. The GIR in this case will be the glucodynamic (GD) measure of the insulin action over time. All glucose clamp studies are performed after an overnight fast of approximately 8 hours. On the morning of the study, a small catheter is placed into a vein of one arm, ideally in the ante-cubital fossa, for administration of 20% dextrose solution (buffered to near neutral pH) under the control of a volumetric pump. Another catheter is placed, ideally in the wrist or hand for venous glucose sampling. This area is heated with a warming device to approximately 55-60° C. for sampling arterialized venous blood. Blood samples are obtained at the bedside for immediate determination of whole blood glucose concentrations using an automated glucose oxidase technique. After basal blood sampling and a stabilization period of approximately 30 minutes, each subject receives a dose of insulin compound administered subcutaneously. The start of the subcutaneous injection of an insulin compound is defined as time zero. Following completion of dosing, in conjunction with frequent blood sampling for measurement of blood glucose, glucose is infused intravenously at a variable rate in order to maintain euglycaemia for up to 24 or 36 hours after insulin administration.
Blood sampling occurs approximately every 10 minutes for approximately 30 minutes prior to dosing and continued every 5-10 minutes for the first 2 hours after dosing (with the option to sample as frequently as every 2.5 minutes), and then reduced to 10-30 minute intervals up to the end of clamp.
During the glucose clamp, the glucose infusion rate is adjusted to maintain a pre-determined target blood glucose concentration for the individual subject. Preferably, the target concentration is close to the fasting blood glucose. The aim of the glucose clamp procedure is to maintain the blood glucose concentrations within +5% of the pre-dose target value, which is defined as 5 mg/dL below the mean fasting blood glucose. Thus, blood glucose concentrations are kept constant while the GIR varied. […]

Substance	peak-trough (PT) ratio [1]	GIR profile shape (healthy volunteers; Part C, 0.5 mg/kg)	time GD maintained (healthy volunteers; Part C, 0.5 mg/kg)	GIR compared with peak GIR response for glargine (healthy volunteers; Part C, 0.5 mg/kg, glargine 0.5 U/kg, data not shown)	duration of action compared with insulin glargine (healthy volunteers; humans, FIG. 2: LY 0.225 mg/kg, glargine 0.5 U/kg)
glargine	1.2-2.6				
LY: 20 kDa PEGylated insulin lispro, about 95% or more at B28 and 5% or less at A1, prepared as in Example 9		“peakless”	greater than 36 hours	exceeded the peak GIR response for glargine	longer than that of insulin glargine

From patent US9050371B2 (Eli Lilly and Company, priority 2008, dated 2015)
